In ChEMBL document CHEMBL1127781, “Antitumor agents. 7. Synthesis and antitumor activity of novel hexacyclic camptothecin analogues” (J Med Chem, 1994):
In brackets after ≈: the same amount, converted by molar mass.

Tests used:
P388 [1] = test: Tested in vitro for the inhibition of P388 (mouse leukemia) cell line by MTT assay; format: functional, cell-based
QG-56 = test: Tested in vitro for the inhibition of QG-56 (human lung squamous cell carcinoma) cell line by MTT assay; format: functional, cell-based
HOC-21 cell line = test: Tested in vitro for the inhibition of HOC-21(human ovarian cancer) cell line by MTT assay; format: functional, cell-based
[2] = Tested for median survival time of treated/control animals) x100 at dosage of 480 mg/kg.; format: functional
Mus musculus [3] = test: Tested for (median survival time of treated/control animals) x100 at dosage of 120 mg/kg.; format: functional
Mus musculus [4] = test: Tested for (median survival time of treated/control animals) x100 at dosage of 60 mg/kg.; format: functional
[5] = Tested for (median survival time of treated/control animals) x100 at dosage of 30 mg/kg.; format: functional
[6] = Tested for median survival time of treated/control animals) x100 at dosage of 240 mg/kg.; format: functional
Mus musculus [7] = test: Tested for (median survival time of treated/control animals) x100 at dosage of 240 mg/kg.; format: functional
P388 [8] = test: Tested in vitro for the inhibition of P388 (mouse leukemia) cell line by MTT assay; 1.95-6.93 ng/mL; format: functional, cell-based
[9] = Tested for median survival time of treated/control animals) x100 at dosage of 30 mg/kg.; format: functional
[10] = Tested for median survival time of treated/control animals) x100 at dosage of 60 mg/kg.; format: functional
[11] = Tested for median survival time of treated/control animals) x100 at dosage of 120 mg/kg.; format: functional
[12] = Tested for (median survival time of treated/control animals) x100 at dosage of 480 mg/kg.; format: functional
[13] = Tested for (median survival time of treated/control animals) x100 at dosage of 60 mg/kg; format: functional
[14] = Tested for (median survival time of treated/control animals) x100 at dosage of 30 mg/kg; format: functional
[15] = Tested for (median survival time of treated/control animals) x100 at dosage of 240 mg/kg; format: functional
[16] = Tested for (median survival time of treated/control animals) x100 at dosage of 120 mg/kg; format: functional

`CC[C@@]1(O)C(=O)OCc2c1cc1n(c2=O)Cc2c-1nc1cccc(C)c1c2C` gave an IC50 (P388 [1]) of 3.76 ng/mL (≈ 0.00999 µM), an IC50 (QG-56) of 0.6 ng/mL (≈ 0.00159 µM) and an IC50 (HOC-21 cell line) of over 500 ng/mL.
`CCC1(O)C(=O)OCc2c1cc1n(c2=O)Cc2c-1nc1ccc(C)c3c1c2CCS3` (racemic) showed an IC50 (P388 [1]) of 3.77 ng/mL (≈ 0.00897 µM), a T/C [2] of over 400% and a T/C (Mus musculus [3]) of 293%. The T/C (Mus musculus [4]) was 224%, the T/C [5] was 205% and the T/C [6] was 290%. The IC50 (QG-56) was 3.36 ng/mL (≈ 0.00799 µM) and the IC50 (HOC-21 cell line) was 35.8 ng/mL (≈ 0.0851 µM).
In the case of `CC[C@@]1(O)C(=O)OCc2c1cc1n(c2=O)Cc2c-1nc1cccc3c1c2CNC3`, the IC50 (P388 [1]) is reported as 3.39 ng/mL (≈ 0.00871 µM), the IC50 (QG-56) is reported as 2.98 ng/mL (≈ 0.00765 µM) and the IC50 (HOC-21 cell line) is reported as 37.8 ng/mL (≈ 0.0969 µM).
`CCc1c2c(nc3ccc(O)cc13)-c1cc3c(c(=O)n1C2)COC(=O)[C@]3(O)CC` [7-ETHYL-10-HYDROXYCAMPTOTHECIN] gave a T/C (Mus musculus [7]) of 67%, an IC50 (P388 [8]) of 6.93 ng/mL (≈ 0.0177 µM) and a T/C (Mus musculus [3]) of 258%. It also gave a T/C (Mus musculus [4]) of 191%, a T/C [5] of 146% and an IC50 (QG-56) of 3.17 ng/mL (≈ 0.00808 µM). It also gave an IC50 (HOC-21 cell line) of 123 ng/mL (≈ 0.314 µM).
`CC[C@@]1(O)C(=O)OCc2c1cc1n(c2=O)Cc2c-1nc1cccc3c1c2COC3` gave an IC50 (P388 [1]) of 0.95 ng/mL (≈ 0.00243 µM), an IC50 (QG-56) of 1.14 ng/mL (≈ 0.00292 µM) and an IC50 (HOC-21 cell line) of 12.3 ng/mL (≈ 0.0315 µM).
Compound `CCC1(O)C(=O)OCc2c1cc1n(c2=O)Cc2c-1nc1ccc(O)c3c1c2CCC3` (racemic) has a T/C [9] of 182%, a T/C [10] of 201% and a T/C [11] of 354%. It also gave an IC50 (P388 [1]) of 3.8 ng/mL (≈ 0.0094 µM), a T/C [2] of 88.5% and a T/C [6] of over 392%. It also gave an IC50 (QG-56) of 0.5 ng/mL (≈ 0.00124 µM) and an IC50 (HOC-21 cell line) of 26.4 ng/mL (≈ 0.0653 µM).
Work on `CC[C@@]1(O)C(=O)OCc2c1cc1n(c2=O)Cc2c-1nc1ccc(O)c3c1c2CCC3` yielded an IC50 (P388 [1]) of 1.6 ng/mL (≈ 0.00396 µM), an IC50 (QG-56) of 0.26 ng/mL (≈ 0.000643 µM) and an IC50 (HOC-21 cell line) of 12.6 ng/mL (≈ 0.0312 µM).
Compound `CCC1(O)C(=O)OCc2c1cc1n(c2=O)Cc2c-1nc1ccc(C)c3c1c2CCO3` (racemic) has a T/C (Mus musculus [7]) of 376%, a T/C [12] of over 376% and an IC50 (P388 [1]) of 4.5 ng/mL (≈ 0.0111 µM). For the same compound, the T/C (Mus musculus [3]) was 273%, the T/C (Mus musculus [4]) was 260% and the IC50 (QG-56) was 1.38 ng/mL (≈ 0.00341 µM). For the same compound, the IC50 (HOC-21 cell line) was 41.9 ng/mL (≈ 0.104 µM).
For `CCC1(O)C(=O)OCc2c1cc1n(c2=O)Cc2c-1nc1ccc(O)c3c1c2CC3` (racemic), the T/C (Mus musculus [7]) was 90.9%, the T/C [12] was 78.2% and the IC50 (P388 [1]) was 2.22 ng/mL (≈ 0.00569 µM). The T/C (Mus musculus [3]) was 110%, the T/C (Mus musculus [4]) was 206% and the T/C [5] was 167%. For the same compound, the IC50 (QG-56) was 1.25 ng/mL (≈ 0.0032 µM) and the IC50 (HOC-21 cell line) was 15.9 ng/mL (≈ 0.0407 µM).
For `CCC1(O)C(=O)OCc2c1cc1n(c2=O)Cc2c-1nc1ccc(C)c3c1c2CCN3` (racemic), the T/C (Mus musculus [7]) was 174%, the T/C [12] was 180% and the T/C (Mus musculus [3]) was 207%. It also gave an IC50 (QG-56) of 1.68 ng/mL (≈ 0.00416 µM) and an IC50 (HOC-21 cell line) of 41.8 ng/mL (≈ 0.104 µM).
`CCC1(O)C(=O)OCc2c1cc1n(c2=O)Cc2cc3ccccc3nc2-1` (racemic) gave a T/C [13] of 128%, a T/C [14] of 128% and a T/C [15] of 163%. The T/C [16] was 148%.
Work on `CCC1(O)C(=O)OCc2c1cc1n(c2=O)Cc2c-1nc1cccc(CN)c1c2C` (stereo not given) yielded an IC50 (P388 [1]) of 5.02 ng/mL (≈ 0.0128 µM), an IC50 (QG-56) of 6.36 ng/mL (≈ 0.0162 µM) and an IC50 (HOC-21 cell line) of 44.8 ng/mL (≈ 0.114 µM).
Work on `CCC1(O)C(=O)OCc2c1cc1n(c2=O)Cc2c-1nc1ccc(O)c3c1c2CCO3` (racemic) yielded a T/C (Mus musculus [7]) of 20%, a T/C [12] of 19% and a T/C (Mus musculus [3]) of 233%. For the same compound, the T/C (Mus musculus [4]) was 221%, the T/C [5] was 147% and the IC50 (QG-56) was 1.1 ng/mL (≈ 0.00271 µM). For the same compound, the IC50 (HOC-21 cell line) was 79 ng/mL (≈ 0.194 µM).
With `CC[C@@]1(O)C(=O)OCc2c1cc1n(c2=O)Cc2c-1nc1ccc(C)c3c1c2CCC3` the IC50 (P388 [1]) was 0.78 ng/mL (≈ 0.00194 µM), the IC50 (QG-56) was 0.68 ng/mL (≈ 0.00169 µM) and the IC50 (HOC-21 cell line) was 5.88 ng/mL (≈ 0.0146 µM).
`CCC1(O)C(=O)OCc2c1cc1n(c2=O)Cc2c-1nc1cccc(COC(C)=O)c1c2COC(C)=O` (stereo not given) gave an IC50 (P388 [1]) of 40.5 ng/mL (≈ 0.0822 µM), an IC50 (QG-56) of 7.41 ng/mL (≈ 0.015 µM) and an IC50 (HOC-21 cell line) of over 500 ng/mL.
In the case of `CC[C@@]1(O)C(=O)OCc2c1cc1n(c2=O)Cc2cc3ccccc3nc2-1` [CAMPTOTHECIN], the T/C [13] is reported as 142%, the T/C [14] is reported as 130% and the IC50 (P388 [1]) is reported as 4.74 ng/mL (≈ 0.0136 µM). It also gave a T/C [15] of 144%, a T/C [16] of 176% and an IC50 (QG-56) of 4.63 ng/mL (≈ 0.0133 µM). It also gave an IC50 (HOC-21 cell line) of 14.7 ng/mL (≈ 0.0422 µM).
In the case of `CC[C@@]1(O)C(=O)OCc2c1cc1n(c2=O)Cc2c-1nc1cccc3c1c2CCCC3`, the IC50 (P388 [1]) is reported as 1.22 ng/mL (≈ 0.00303 µM), the IC50 (QG-56) is reported as 1.73 ng/mL (≈ 0.0043 µM) and the IC50 (HOC-21 cell line) is reported as 15.6 ng/mL (≈ 0.0388 µM).
